Reference: patent US20250186452A1, “NOVEL USE OF QUINOLINE COMPOUND” (TARAPEUTICS SCIENCE INC., priority 2022, published 2025)
Where two headings read alike, the source gives them in different places.

Experiments:
TEL-CSF1R-BaF3 = target: T1, TEL-CSF1R-BaF3 (Homo sapiens, UniProt P07333); assay: Proliferation of TEL-CSF1R-BaF3 cells (CCK-8, 72 hours); format: cell-based; details: for GI50: 72 hours incubation, CCK-8
T1 construct: expressed in transfected cells; host or cells: mouse BaF3 cells (ATCC), retroviral transduction with MSCV-Puro vector, IL-3 withdrawn; the other entry of the earlier key: ETV6 (P41212, Transcription factor ETV6)
T1 sequence (P07333 582-910 limits assumed): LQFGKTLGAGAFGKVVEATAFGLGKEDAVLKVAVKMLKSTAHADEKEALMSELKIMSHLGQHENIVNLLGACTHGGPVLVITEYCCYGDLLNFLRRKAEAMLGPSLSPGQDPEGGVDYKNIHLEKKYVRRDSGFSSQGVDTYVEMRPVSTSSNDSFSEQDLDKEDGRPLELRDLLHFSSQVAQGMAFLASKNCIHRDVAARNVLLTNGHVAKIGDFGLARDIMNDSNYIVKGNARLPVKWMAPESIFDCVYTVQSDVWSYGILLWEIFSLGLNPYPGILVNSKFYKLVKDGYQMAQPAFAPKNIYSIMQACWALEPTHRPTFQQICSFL
Method: (§1) The incubated cells were detected by CCK-8 (purchased from MedChem Express, China) cell viability detection kit (CCK-8 can be reduced by dehydrogenases in living cells to a highly water-soluble yellow formazan product, and the amount of the generated formazan product is proportional to the number of living cells). The number of living cells was quantified by a microplate reader, and the GI50 for each compound was calculated (the results are shown in Table 2).
The construction method of the TEL-CSF1R-BaF3 cell line (a cell line stably expressing CSF1R kinase) was as follows: the sequence of human CSF1R kinase region was amplified by PCR and inserted into the MSCV-Puro vector (Clontech) with an N-terminal TEL fragment, and stably transferred into mouse BaF3 cells (purchased from ATCC, USA) by a retroviral method, and IL-3 growth factor was removed, finally a cell line dependent on CSF1R transferred protein was obtained.

M-NSF-60 = assay: Proliferation of M-NSF-60 cells with M-CSF (CCK-8, 72 hours); format: cell-based, mouse; details: for GI50: Mus musculus, read-out: M-NSF-60 (GI50/μM)
Method: as §1

[1] = M-CSF 50 ng/ml in medium, 72 hours incubation, CCK-8
[2] = result in words, summary of Table 2

| GI50 (TEL-CSF1R-BaF3) | inhibitory effect on the proliferation of TEL-CSF1R-BaF3 (TEL-CSF1R-BaF3; [2]) | Compound | GI50 (M-NSF-60; 72 h) | GI50 (M-NSF-60; [1]) | inhibitory effect on the proliferation of M-NSF-60 (M-NSF-60; [2]) |
| --- | --- | --- | --- | --- | --- |
| 2.54 µM |  | COc1cc2nccc(Oc3ncc(NC(=O)Cc4cccc(C(F)(F)F)c4)cc3Cl)c2cc1OC [Comparative Example 2, N-(5-chloro-6-((6,7-dimethoxyquinolin-4-yl)oxy)pyridin-3-yl)-2-(3-(trifluoromethyl)phenyl)acetamide, reference compound] |  | 7.84 µM |  |
| 1.23 µM |  | COc1cc2nccc(Oc3ccc(C(=O)NCc4cccc(C(F)(F)F)c4)cc3)c2cc1OC [Comparative Example 3, N-(3-(trifluoromethyl)benzyl)-4-((6,7-dimethoxyquinolin-4-yl)oxy)benzamide, reference compound] |  | 2.4 µM |  |
| 0.17 µM | certain inhibitory activity | COc1cccc(CC(=O)Nc2ccc(Oc3ncnc4cc(OC)c(OC)cc34)cc2)c1 [Comparative Example 4, N-(4-((6,7-dimethoxyquinazolin-4-yl)oxy)phenyl)-2-(3-methoxyphenyl)acetamide, reference compound] |  | 0.55 µM | certain inhibitory activity |
| 0.012 µM |  | COc1cc2nccc(Oc3ccc(NC(=O)Cc4ccccc4)cc3)c2cc1OC [Example 3, N-(4-((6,7-dimethoxyquinolin-4-yl)oxy)phenyl)-2-phenylacetamide] |  | 0.1 µM |  |
| 0.001 µM |  | COc1cc2nccc(Oc3ccc(NC(=O)Cc4ccc(Cl)c(F)c4)cc3)c2cc1OC [Example 5, N-(4-((6,7-dimethoxyquinolin-4-yl)oxy)phenyl)-2-(4-chloro-3-fluorophenyl)acetamide] |  | 0.035 µM |  |
| 0.017 µM |  | COc1cc2nccc(Oc3ccc(NC(=O)Cc4cccc(C(F)(F)F)c4)c(Cl)c3)c2cc1OC [Example 6, N-(2-chloro-4-((6,7-dimethoxyquinolin-4-yl)oxy)phenyl)-2-(3-(trifluoromethyl)phenyl)acetamide] |  | 0.06 µM |  |
| 0.009 µM |  | COc1cc2nccc(Oc3ccc(NC(=O)Cc4ccc(C(F)(F)F)cc4)c(Cl)c3)c2cc1OC [Example 7, N-(2-chloro-4-((6,7-dimethoxyquinolin-4-yl)oxy)phenyl)-2-(4-(trifluoromethyl)phenyl)acetamide] |  | 0.03 µM |  |
| 0.001 µM |  | COc1cc2nccc(Oc3ccc(NC(=O)Cc4cccc(C(F)(F)F)c4)cc3)c2cc1OC [Example 8, N-(4-((6,7-dimethoxyquinolin-4-yl)oxy)phenyl)-2-(3-(trifluoromethyl)phenyl)acetamide] |  | 0.006 µM |  |
| 0.002 µM |  | COc1cc2nccc(Oc3ccc(NC(=O)Cc4ccc(C(F)(F)F)cc4)cc3)c2cc1OC [Example 9, N-(4-((6,7-dimethoxyquinolin-4-yl)oxy)phenyl)-2-(4-(trifluoromethyl)phenyl)acetamide] |  | 0.007 µM |  |
| 0.009 µM |  | COc1ccc(CC(=O)Nc2ccc(Oc3ccnc4cc(OC)c(OC)cc34)cc2)cc1OC [Example 10, N-(4-((6,7-dimethoxyquinolin-4-yl)oxy)phenyl)-2-(3,4-dimethoxyphenyl)acetamide] |  | 0.038 µM |  |
| 0.001 µM |  | COc1cc2nccc(Oc3ccc(NC(=O)Cc4ccc(C)c(C)c4)cc3)c2cc1OC [Example 11, N-(4-((6.7-dimethoxyquinolin-4-yl)oxy)phenyl)2-(3,4-dimethylphenyl)acetamide] |  | 0.005 µM |  |
| 0.003 µM |  | COc1cc2nccc(Oc3ccc(NC(=O)Cc4ccc(F)c(F)c4)cc3)c2cc1OC [Example 12, N-(4-((6,7-dimethoxyquinolin-4-yl)oxy)phenyl)-2-(3,4-difluorophenyl)acetamide] |  | 0.065 µM |  |
| 0.002 µM |  | COc1cc2nccc(Oc3ccc(NC(=O)Cc4ccc(F)c(C(F)(F)F)c4)cc3)c2cc1OC [Example 13, N-(4-((6,7-dimethoxyquinolin-4-yl)oxy)phenyl)-2-(4-fluoro-3-(trifluoromethyl)phenyl)acetamide] |  | 0.018 µM |  |
| 0.012 µM |  | COc1cc2nccc(Oc3ccc(NC(=O)Cc4c(F)cccc4F)cc3)c2cc1OC [Example 14, N-(4-((6,7-dimethoxyquinolin-4-yl)oxy)phenyl)-2-(2,6-difluorophenyl)acetamide] |  | 0.26 µM |  |
| 0.003 µM |  | COc1cc2nccc(Oc3ccc(NC(=O)Cc4ccc(F)cc4F)cc3)c2cc1OC [Example 15, N-(4-((6,7-dimethoxyquinolin-4-yl)oxy)phenyl)-2-(2,4-difluorophenyl)acetamide] |  | 0.051 µM |  |
| 0.001 µM |  | COc1cc2nccc(Oc3ccc(NC(=O)Cc4ccc(C)c(F)c4)cc3)c2cc1OC [Example 16, N-(4-((6,7-dimethoxyquinolin-4-yl)oxy)phenyl)-2-(3-fluoro-4-methylphenyl)acetamide] |  | 0.033 µM |  |
| 0.002 µM |  | COc1cc2nccc(Oc3ccc(NC(=O)Cc4ccc(Cl)c(Cl)c4)cc3)c2cc1OC [Example 17, N-(4-((6,7-dimethoxyquinolin-4-yl)oxy)phenyl)-2-(3,4-dichlorophenyl)acetamide] |  | 0.042 µM |  |
| 0.002 µM |  | COc1cc2nccc(Oc3ccc(NC(=O)Cc4ccc5c(c4)OCO5)cc3)c2cc1OC [Example 18, N-(4-((6,7-dimethoxyquinolin-4-yl)oxy)phenyl)-2-(benzo[d][1,3]dioxol-5-yl)acetamide] |  | 0.062 µM |  |
| 0.0008 µM |  | COc1cc2nccc(Oc3ccc(NC(=O)Cc4ccc5ccccc5c4)cc3)c2cc1OC [Example 19, N-(4-((6,7-dimethoxyquinolin-4-yl)oxy)phenyl)-2-(naphth-2-yl)acetamide] |  | 0.074 µM |  |
| 0.006 µM |  | COc1cc2nccc(Oc3ccc(NC(=O)Cc4cccc(F)c4)cc3)c2cc1OC [Example 20, N-(4-((6,7-dimethoxyquinolin-4-yl)oxy)phenyl)-2-(3-fluorophenyl)acetamide] |  | 0.13 µM |  |
| 0.008 µM |  | COc1cc2nccc(Oc3ccc(NC(=O)Cc4ccc(Cl)c(C(F)(F)F)c4)c(Cl)c3)c2cc1OC [Example 23, N-(2-chloro-4-((6,7-dimethoxyquinolin-4-yl)oxy)phenyl)-2-(4-chloro-3-(trifluoromethyl)phenyl)acetamide] |  | 0.061 µM |  |
| 0.002 µM |  | COc1cc2nccc(Oc3ccc(NC(=O)Cc4ccc(Cl)c(C(F)(F)F)c4)c(F)c3)c2cc1OC [Example 24, N-(2-fluoro-4-((6,7-dimethoxyquinolin-4-yl)oxy)phenyl)-2-(4-chloro-3-(trifluoromethyl)phenyl)acetamide] |  | 0.024 µM |  |
| 0.003 µM |  | COc1cc2nccc(Oc3ccc(NC(=O)Cc4ccc(Cl)c(C(F)(F)F)c4)cc3F)c2cc1OC [Example 25, N-(3-fluoro-4-((6,7-dimethoxyquinolin-4-yl)oxy)phenyl)-2-(4-chloro-3-(trifluoromethyl)phenyl)acetamide] |  | 0.05 µM |  |
| 0.006 µM |  | COc1cc2nccc(Oc3ccc(NC(=O)Cc4ccc(Cl)c(C(F)(F)F)c4)c(C)c3)c2cc1OC [Example 26, N-(2-methyl-4-((6,7-dimethoxyquinolin-4-yl)oxy)phenyl)-2-(4-chloro-3-(trifluoromethyl)phenyl)acetamide] |  | 0.06 µM |  |
| 0.003 µM |  | COc1cc2nccc(Oc3ccc(NC(=O)Cc4ccc(Cl)c(C(F)(F)F)c4)cc3C)c2cc1OC [Example 27, N-(3-methyl-4-((6,7-dimethoxyquinolin-4-yl)oxy)phenyl)-2-(4-chloro-3-(trifluoromethyl)phenyl)acetamide] |  | 0.041 µM |  |
| 0.012 µM |  | COc1cc2nccc(Oc3ccc(NC(=O)NCCCN4CCOCC4)cc3)c2cc1OC [Example 28, 1-(4-((6,7-dimethoxyquinolin-4-yl)oxy)phenyl)-3-(3-morpholinopropyl)urea] |  |  |  |
| 0.011 µM |  | COc1cc2nccc(Oc3ccc(NC(=O)NCCCN4CCN(C)CC4)cc3)c2cc1OC [Example 29, 1-(4-((6,7-dimethoxyquinolin-4-yl)oxy)phenyl)-3-(3-(4-methylpiperazin-1-yl)propyl)urea] |  |  |  |
| 0.004 µM |  | COc1cc2nccc(Oc3ccc(NC(=O)Cc4ccc(Cl)c(C(F)(F)F)c4)cc3OC)c2cc1OC [Example 37, N-(3-methoxy-4-((6,7-dimethoxyquinolin-4-yl)oxy)phenyl)-2-(4-chloro-3-(trifluoromethyl)phenyl)acetamide] |  | 0.075 µM |  |

| Compound | GI50 (TEL-CSF1R-BaF3) | inhibitory effect on the proliferation of TEL-CSF1R-BaF3 (TEL-CSF1R-BaF3; [2]) | GI50 (M-NSF-60; 72 h) | GI50 (M-NSF-60; [1]) | inhibitory effect on the proliferation of M-NSF-60 (M-NSF-60; [2]) |
| --- | --- | --- | --- | --- | --- |
| COc1cc2nccc(Oc3ccc(NC(=O)Cc4ccccc4)cn3)c2cc1OC [Comparative Example 1, N-(6-((6,7-dimethoxyquinolin-4-yl)oxy)pyridin-3-yl)-2-phenylacetamide, reference compound] | > 10 µM |  | > 10 µM |  |  |
| COc1cc2nccc(Oc3ccc(NC(=O)Cc4ccc(C)c(C(F)(F)F)c4)cc3)c2cc1OC [Example 1, N-(4-((6,7-dimethoxyquinolin-4-yl)oxy)phenyl)-2-(4-methyl-3-(trifluoromethyl)phenyl)acetamide] | 0.002 µM |  | 0.009 µM |  |  |
